# Experimental data: patent publication US20230218761A1, “METHOD FOR DECOMPOSING COMPOUND AND COMPOUND” (NATIONAL UNIVERSITY CORPORATION HOKKAIDO UNIVERSITY, priority 2020, published 2023)
# Tests used:
# Assay type in all cases: physicochemical
# [1] = Decomposition of compound by X-ray irradiation, residual ratio by HPLC (Examples 5 to 8); conditions: 0.5 μM compound in 0.1-M phosphoric acid buffer pH 7.0, bubbled with Ar, X-rays 6 MeV, 20 Gy, 4.4 Gy/min
# Method: HPLC System: HPLC system (produced by Shimadzu Corporation) equipped with a reverse-phase column Inertsil ODS-3 (10 mm×250 mm) (produced by GL Sciences).
# Eluent A: 0.1-M triethylamine acetic acid buffer solution
# This buffer solution was used as an X-ray irradiation solution for the compound.
# The X-ray irradiation solution for the compound was bubbled with Ar and then irradiated with X-rays at 6 MeV (20 Gy, 4.4 Gy/min) using LINAC (linear accelerator).
# The peak area ratio was calculated on the basis of the areas of absorption peaks of the compound and methylene blue. The ratio between the concentrations of methylene blue and the compound was determined using the calibration curve. The concentration of the compound was calculated using the known concentration of the methylene blue. Thus, the residual ratio (Post/Pre (%)) of the compound was determined.
# Note that, the smaller the residual ratio (Post/Pre (%)), the higher the degree of progress of the decomposition (selectively decomposition of chemical bonds; dissociation of axial ligands) by X-rays.
# [2] = Impact of radical species on decomposition of the compound by X-ray irradiation (residual ratio by HPLC); conditions: 6 MeV
# Method: Sodium formate was added to a 5-μM aqueous solution of the compound 2 as a radical scavenger. While degassing was performed using Ar, the resulting mixture was irradiated with X-rays (6 MeV) using LINAC such that the amount of X-rays absorbed was 2, 3, 4, or 5 Gy. Immediately after the irradiation, the degassing was stopped and the sample irradiated with X-rays was analyzed using HPLC as in Example 5 to calculate the residual ratios of the compound 2 under the above irradiation conditions. Note that, when the amount of X-rays emitted was 5 Gy, the amount of e^−aq (hydrated electrons) produced was 1.6 μM and the amount of CO2^−·(carbon dioxide anion radicals) produced was 1.6 μM. The irradiation and calculation of the residual ratio were conducted three times for each case, and the average was considered as the residual ratio (Post/Pre (%)) of the compound 2.
# The residual ratio (Post/Pre (%)) of the compound 2 was calculated as in Reference Example 3, except that the degassing was stopped after the Ar degassing had been maintained 30 minutes subsequent to the X-ray irradiation.
# The residual ratio (Post/Pre (%)) of the compound 2 was calculated as in Reference Example 3, except that, instead of sodium formate, sodium formate and nitrous oxide were used as a radical scavenger. Note that, when the amount of X-rays emitted was 5 Gy, the amount of e^−aq (hydrated electrons) produced was 0 μM and the amount of CO2^−·(carbon dioxide anion radicals) produced was 3.1 μM.
# The residual ratio (Post/Pre (%)) of the compound 2 was calculated as in Reference Example 5, except that the degassing was stopped after the Ar degassing had been maintained 30 minutes subsequent to the X-ray irradiation.
# The residual ratio (Post/Pre (%)) of the compound 2 was calculated as in Reference Example 3, except that the radical scavenger was not used.
# The results obtained in Reference Example 3 to 6 confirm that, even in the case where the amount of X-ray (6 MeV) emitted is 10 Gy or less, that is, for example, 2 to 5 Gy, the selective decomposition of the chemical bonds of the compound 2 (dissociation of axial ligands) occurs due to the action of e^−aq (hydrated electrons) and/or CO2^−·(carbon dioxide anion radicals). It was also confirmed that continuing the Ar degassing subsequent to the irradiation enables the selective decomposition of the chemical bonds of the compound 2 to occur.
# On the basis of the results obtained in Reference Examples 3 to 6, it is also considered that e^−aq (hydrated electrons) and/or CO2^−·(carbon dioxide anion radicals) contribute to the dissociation of the axial ligands of the compound 2. Since the residual ratio of the compound 2 decreased in the cases where the degassing was maintained, it is also considered that maintaining the degassing causes a radical chain reaction responsible for the dissociation of the axial ligands.
# [3] = Impact of pH on decomposition of the compound by X-ray irradiation (residual ratio by HPLC); conditions: X-rays 6 MeV, 20 Gy absorbed, average of three
# Method: In a phosphoric acid buffer solution having a pH of 6 or 7, 5 μM of the compound 2 was dissolved. While degassing was performed using Ar, the resulting mixture was irradiated with X-rays (6 MeV) using LINAC such that the amount of X-rays absorbed was 20 Gy. The sample irradiated with X-rays was analyzed using HPLC as in Example 5 to calculate the residual ratios of the compound 2 at the above pH values. The above calculation was conducted three times for each case, and the average was considered as the residual ratio (Post/Pre (%)) of the compound 2.
# In Reference Example 2 where the compound 2 was dissolved in a phosphoric acid buffer solution having a pH of 7, the residual ratio (Post/Pre (%)) at which the compound 2 remained after the X-ray irradiation was 50.0%.
# This confirms that, the lower the pH, the higher the likelihood of dissociation of the axial ligands.
substance,measurement,setting,value
Bis({6-[Tris(3-Sulfopropyl)]Ammoniohexanoyl} Oxide) Silicon Phthalocyanine [Compound 3],Post/pre (%) residual ratio of the compound after X-ray irradiation,[1],62.1%
Bis{3-[Tris(3-Sulfopropyl)]Ammoniopropyldimethylsilyl Oxide} Silicon Phthalocyanine [Compound 1],Post/pre (%) residual ratio of the compound after X-ray irradiation,[1],52.5%
Bis{4-[Tris(3-Sulfopropyl)]Ammoniobutyloxide} Silicon Phthalocyanine [Compound 2],residual ratio (Post/Pre (%)),"[2]; Reference example 3: 5 μM aqueous, sodium formate, Ar degassing stopped immediately after irradiation, 2 Gy absorbed",98.4%
same,residual ratio (Post/Pre (%)),"[2]; Reference example 3: 5 μM aqueous, sodium formate, Ar degassing stopped immediately after irradiation, 3 Gy absorbed",93.3%
same,residual ratio (Post/Pre (%)),"[2]; Reference example 3: 5 μM aqueous, sodium formate, Ar degassing stopped immediately after irradiation, 4 Gy absorbed",89.5%
same,residual ratio (Post/Pre (%)),"[2]; Reference example 3: 5 μM aqueous, sodium formate, Ar degassing stopped immediately after irradiation, 5 Gy absorbed",8.8%
same,residual ratio (Post/Pre (%)),"[2]; Reference example 4: sodium formate, Ar degassing maintained 30 minutes after irradiation, 2 Gy absorbed",100%
same,residual ratio (Post/Pre (%)),"[2]; Reference example 4: sodium formate, Ar degassing maintained 30 minutes after irradiation, 3 Gy absorbed",49.9%
same,residual ratio (Post/Pre (%)),"[2]; Reference example 4: sodium formate, Ar degassing maintained 30 minutes after irradiation, 4 Gy absorbed",0.3%
same,residual ratio (Post/Pre (%)),"[2]; Reference example 4: sodium formate, Ar degassing maintained 30 minutes after irradiation, 5 Gy absorbed",0%
same,residual ratio (Post/Pre (%)),"[2]; Reference example 5: sodium formate and nitrous oxide, degassing stopped immediately after irradiation, 2 Gy absorbed",96.0%
same,residual ratio (Post/Pre (%)),"[2]; Reference example 5: sodium formate and nitrous oxide, degassing stopped immediately after irradiation, 3 Gy absorbed",90.4%
same,residual ratio (Post/Pre (%)),"[2]; Reference example 5: sodium formate and nitrous oxide, degassing stopped immediately after irradiation, 4 Gy absorbed",86.2%
same,residual ratio (Post/Pre (%)),"[2]; Reference example 5: sodium formate and nitrous oxide, degassing stopped immediately after irradiation, 5 Gy absorbed",8.3%
same,residual ratio (Post/Pre (%)),"[2]; Reference example 6: sodium formate and nitrous oxide, Ar degassing maintained 30 minutes after irradiation, 2 Gy absorbed",93.1%
same,residual ratio (Post/Pre (%)),"[2]; Reference example 6: sodium formate and nitrous oxide, Ar degassing maintained 30 minutes after irradiation, 3 Gy absorbed",85.4%
same,residual ratio (Post/Pre (%)),"[2]; Reference example 6: sodium formate and nitrous oxide, Ar degassing maintained 30 minutes after irradiation, 4 Gy absorbed",36.1%
same,residual ratio (Post/Pre (%)),"[2]; Reference example 6: sodium formate and nitrous oxide, Ar degassing maintained 30 minutes after irradiation, 5 Gy absorbed",4.8%
same,residual ratio (Post/Pre (%)),"[2]; Reference example 7: no radical scavenger, Ar degassing, 2 Gy absorbed",100%
same,residual ratio (Post/Pre (%)),"[2]; Reference example 7: no radical scavenger, Ar degassing, 3 Gy absorbed",99.4%
same,residual ratio (Post/Pre (%)),"[2]; Reference example 7: no radical scavenger, Ar degassing, 4 Gy absorbed",99.4%
same,residual ratio (Post/Pre (%)),"[2]; Reference example 7: no radical scavenger, Ar degassing, 5 Gy absorbed",100%
same,residual ratio (Post/Pre (%)) after X-ray irradiation,"[3]; 5 μM in phosphoric acid buffer pH 6, Ar degassing",18.6%
same,residual ratio (Post/Pre (%)) after X-ray irradiation,"[3]; 5 μM in phosphoric acid buffer pH 7, Ar degassing",50.0%
same,Post/pre (%) residual ratio of the compound after X-ray irradiation,[1],46.8%
Bis{4-[Tris(3-Sulfopropyl)]Ammoniomethylphenoxide} Silicon Phthalocyanine [Compound 4],Post/pre (%) residual ratio of the compound after X-ray irradiation,[1],74.8%
